Assay results published in patent US6610763B1, “Polymer composition, the production and further processing thereof into receptacles” (priority 1998, dated 2003).

How the values were obtained:
[1] = in vivo; cited from earlier work
[2] = saturation concentration in water; type: physicochemical; details: room temperature
[3] = test system: Klebsiella pneumoni (ATCC 4352) and Staphylococcus aureus (ATCC 6538); test: inhibiting zone test on agar plates; type: cell-based; details: various concentrations on 6-mm filter disks, approximately 16 hours of incubation on agar plates, FIG. 1
Description: For purposes of determining the concentration by means of the inhibiting zone tests, Klebsiella pneumoni (ATCC 4352) and Staphylococcus aureus (ATCC 6538) were bred on casein soy-meal broth (CM, oxoid), then plated out onto casein-peptone soy-meal agar (CM 131, oxoid) and incubated at 37° C. [98.6° F.]. Up to 50 μl of Irgasan DP 300 were applied onto 6-mm filter disks.
For this purpose, first of all, a test was drawn up that makes it possible to quantitatively detect the anti-microbial effect of test specimens containing 0.2% Irgasan DP 300 and Irgasan DP 300 as a pure substance. In order to examine the migration of the additive and the sensitivity of various test germs, an inhibiting zone test was conducted: test specimens were incubated on agar plates that had been inoculated with these germs. As indicators, two microorganisms were employed whose minimum inhibiting concentration (MIC) with respect to Irgasan DP 300 was between 0.01 ppm and 0.3 ppm, according to information provided by the manufacturer. The kinetics of the release of active ingredient into an aqueous solution were examined by incubating test specimens in a defined volume and by subsequently evaluating them with a spectroscope as well as in the inhibiting zone test. Both methods were calibrated by means of parallel batches with the pure substance. […]

In the case of `Oc1cc(Cl)ccc1Oc1ccc(Cl)cc1Cl` [Irgasan DP 300, 2,4,4′-trichloro-2′-hydroxydiphenyl ether], the “accumulation in the body” value [1] is listed as “does not accumulate in the body”, the “toxicity in view of LD50 value” [1] is listed as “practically non-toxic” and the “saturation concentration in water” value [2] is listed as “about 10 ppm”. The “microbial growth in inhibiting zones” value [3] was “do not exhibit any microbial growth”.
